Patent publication US12173018B2, “Penicillin-binding protein inhibitors” (priority 2018, dated 2024)
Converted amounts (≈) assume the structure as drawn. Where two headings read alike, the source gives them in different places.

What was measured:
[1] = test system: P. aeruginosa (ΔmexAB-oprM); test: microbe, parasite or virus in culture; format: cell-based; conditions: Pseudomonas aeruginosa, read-out: MIC P. aeruginosa ΔmexAB-OprM
In short: (§1)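 Strains are tested by standard CLSI broth microdilution. Log-phase cells, diluted by OD600 to 5×10^5 CFU/mL, meet 2-fold compound series and incubate 16-20 hours at 37° C before the lowest growth-free concentration is recorded.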

[2] = test system: P. aeruginosa ATCC 35151; test: microbe, parasite or virus in culture; format: cell-based; conditions: Pseudomonas aeruginosa, ATCC35151; hyper-permeable P. aeruginosa ATCC 35151; read-out: MIC P. aeruginosa ATCC 35151
In short: as §1

[3] = test system: P. aeruginosa PAO1; test: Broth microdilution MIC, P. aeruginosa PAO1; format: cell-based; conditions: Pseudomonas aeruginosa, PAO1, read-out: MIC P. aeruginosa PAO1
Description: To determine the ability of test compounds to potentiate the inhibition of the growth of bacterial strains, classic cell based broth microdilution minimum inhibitory concentration (MIC) assays were employed. MIC assays are performed according to CLSI methods except where otherwise noted (CLSI, 2011 and CLSI, 2009). The reference type strain E. coli ATCC 25922, the wild-type parent strain E. coli AG100, the hyper-permeable E. coli 901C and E. coli D22 and the E. coli AG100A strain lacking the acrAB efflux pump encoding genes were used to determine the ability of the PBP inhibitors to penetrate the outer membrane of gram-negative bacteria and inhibit bacterial growth. […] The P. aeruginosa PAO1, P. aeruginosa ATCC 27853 and A. baumannii ATCC 19606, along with the hyper-permeable P. aeruginosa ATCC 35151 and an engineered efflux pump-compromised strain of P. aeruginosa (ΔmexAB-oprM) were used to determine the ability of PBP inhibitors to penetrate the outer membrane of P. aeruginosa and A. baumannii and assess antibacterial activity against these important gram-negative organisms.
Briefly, cryo-preserved bacterial cultures of challenge strains are streaked for isolation on appropriate agar medium, in this case Mueller Hinton II agar. Following incubation to allow growth of the colonies, plates are sealed with parafilm and stored refrigerated for up to two weeks. For preparation of assay inoculum and to ensure low variability, at least 5 colonies are picked from the agar plates with an inoculating loop and aseptically transferred to a culture tube containing 3 mL of Mueller-Hinton Broth (supplemented with divalent cations to required levels based on Manufacturers' certification). The broth culture is grown for 3-5 hours at 37° C. with shaking at 200 rpm. Meanwhile, 2-fold serial dilutions of test compounds are conducted in a 96 well plate with a final volume of 75 μL per well at 2-fold the final desired concentration. After the dilution plates are set up the growing cultures are then diluted in a cuvette containing MH II broth and the optical density is measured at 600 nm. The Inoculum is diluted such that 75 μL of this culture in Mueller-Hinton Broth results in a starting bacterial concentration of 5×10^5 CFU/mL when added to the dilution plates. The plates are incubated for 16-20 hours at 37° C. The MIC values are read visually as the lowest concentration well with no bacterial growth.

[4] = test system: engineered strain of Escherichia coli harboring CTX-M15; test: microbe, parasite or virus in culture; format: cell-based; conditions: Escherichia coli, read-out: Microbiological Activity (MIC in mg/L), E. coli DH5α/pLBII-CTX-M15, engineered strain producing CTX-M15
[5] = biological target: E. coli PBP3 (Escherichia coli (strain K12), UniProt P0AD68); test: E. coli PBP3 Bocillin-FL fluorescence polarization competition binding assay
In short: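 Competition against 0.1 μM Bocillin-FL for binding to 1.5 μM purified protein, read by fluorescence polarization for 60 min. Compounds tested from 0 to 1000 μM; EC50 taken as the concentration reducing probe binding.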

[6] = biological target: E. coli PBP1b (Escherichia coli (strain K12), UniProt P02919); test: Radioligand competition binding assay with 14C-labeled boronic acid probe, PBP1b
Text: To determine the ability of boronic acid-based test PBP inhibitors to bind Penicillin Binding Proteins (PBPs), a radio-labelled boronic acid PBP inhibitor
[drawing 751] was used in competition binding assays to determine boronic acid PBP inhibitor binding to PBP1a or PBP1b from Escherichia coli. PBP1a and PBP1b were purified as described previously (Bertsche, U.; et al., J. Biol. Chem. 2005, 280 (45), 38096-38101; Born, P.; et al., J. Biol. Chem. 2006. 281 (37), 26985-26993). To establish assay conditions for competition binding, an enzyme titration/saturation binding experiment was performed. Saturation binding was performed in a buffer comprised of 20 mM Tris (pH 7.5), 500 mM NaCl and 0.1% (v/v) TritonX-100, with PBP1a/PBP1b at a final concentration of 0.1 μM and Compound A at final concentrations ranging from 0-100 μM. Mixtures were incubated for 60 minutes, then applied to Zeba Spin Desalting columns or plates (ThermoFisher Scientific) and centrifuged at 1000-1500×g for 2 minutes. The flow through, containing PBP bound with Compound A, was recovered and 100 μL mixed with 5 mL of UltimaGold liquid scintillation cocktail (Perkin Elmer), and the radioactivity counted using a Beckman Coulter LS 6500 Multipurpose scintillation counter. PBP binding of Compound A approached saturation at 20 μM of ^14C-labeled probe. The competition binding assay was validated using the beta-lactam ampicillin, with Compound A at a final concentration of 20 μM, PBP1a/PBP1b at a final concentration of 0.1 μM. PBP1a/PBP1b was incubated with ampicillin in a 96-well microplate for 60 minutes, then Compound A was added and the mixtures incubated for an additional 60 minutes. The mixtures were then applied to Zeba Spin desalting plates and centrifuged at 1000×g for 2 minutes. The flow through was recovered and 100 μl mixed with 5 ml of UltimaGold liquid scintillation cocktail and the radioactivity counted. […] Binding assays with boronic acid PBP inhibitors were performed in an identical fashion. The potency of boronic acid PBP inhibitors was reported as the EC50 value.

[7] = test system: E. coli ATCC 25922; test: Broth microdilution MIC, E. coli ATCC 25922; format: cell-based; conditions: Escherichia coli, ATCC25922; E. coli ATCC 25922, broth microdilution; read-out: MIC E. coli 25922
In short: as §1

[8] = test system: E. coli AG100; test: Broth microdilution MIC, E. coli AG100 (wild-type parent); format: cell-based; conditions: Escherichia coli; wild-type parent E. coli AG100, broth microdilution; read-out: MIC E. coli AG100
In short: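 Broth microdilution in cation-supplemented Mueller-Hinton broth, 2-fold serial compound dilutions, inoculum 5×10^5 CFU/mL from 3-5 h log culture.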

[9] = test system: E. coli 901C; test: microbe, parasite or virus in culture; format: cell-based; conditions: Escherichia coli; hyper-permeable E. coli 901C, broth microdilution; read-out: MIC E. coli 901C
In short: as §1

[10] = test system: E. coli AG100A; test: microbe, parasite or virus in culture; format: cell-based; conditions: Escherichia coli, read-out: MIC E. coli AG100A
In short: as §1

[11] = test system: E. coli D22; test: microbe, parasite or virus in culture; format: cell-based; conditions: Escherichia coli; hyper-permeable E. coli D22, broth microdilution; read-out: MIC E. coli D22
In short: as §1

[12] = test system: K. pneumoniae SI-117; test: microbe, parasite or virus in culture; format: cell-based; conditions: Klebsiella pneumoniae, SI117, read-out: MIC K. pneumoniae SI-117
In short: as §1

[13] = test system: K. pneumoniae UMM; test: microbe, parasite or virus in culture; format: cell-based; conditions: Klebsiella pneumoniae; K. pneumoniae UMM producing SHV-5 and KPC-2; read-out: MIC K. pneumoniae UMM
In short: as §1

[14] = test system: K. pneumoniae 848844; test: microbe, parasite or virus in culture; format: cell-based, Klebsiella pneumoniae; conditions: Klebsiella pneumoniae; K. pneumoniae 848844 producing SHV-11 and KPC-2; read-out: MIC K. pneumoniae 848844
In short: as §1

[15] = fluorescence polarization competition binding with Bocillin-FL, read-out: E. coli K12 PBP3 Potency

Chain of E. coli PBP3 (P0AD68 whole entry): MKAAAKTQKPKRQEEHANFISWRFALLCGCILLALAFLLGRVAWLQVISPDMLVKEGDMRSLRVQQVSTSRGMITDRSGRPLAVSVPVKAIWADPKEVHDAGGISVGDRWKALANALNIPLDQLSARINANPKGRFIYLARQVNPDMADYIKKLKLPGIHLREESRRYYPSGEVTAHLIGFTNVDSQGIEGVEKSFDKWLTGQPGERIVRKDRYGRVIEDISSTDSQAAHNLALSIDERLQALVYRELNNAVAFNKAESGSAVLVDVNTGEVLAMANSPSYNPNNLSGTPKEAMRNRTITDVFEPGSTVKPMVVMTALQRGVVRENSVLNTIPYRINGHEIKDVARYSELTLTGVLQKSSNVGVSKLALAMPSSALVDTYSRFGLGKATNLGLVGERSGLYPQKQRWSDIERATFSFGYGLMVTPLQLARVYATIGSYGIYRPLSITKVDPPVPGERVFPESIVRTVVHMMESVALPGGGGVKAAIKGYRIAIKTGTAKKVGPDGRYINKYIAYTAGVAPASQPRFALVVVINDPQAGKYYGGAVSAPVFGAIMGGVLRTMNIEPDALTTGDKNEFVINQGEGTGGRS
Chain of E. coli PBP1b (P02919 whole entry): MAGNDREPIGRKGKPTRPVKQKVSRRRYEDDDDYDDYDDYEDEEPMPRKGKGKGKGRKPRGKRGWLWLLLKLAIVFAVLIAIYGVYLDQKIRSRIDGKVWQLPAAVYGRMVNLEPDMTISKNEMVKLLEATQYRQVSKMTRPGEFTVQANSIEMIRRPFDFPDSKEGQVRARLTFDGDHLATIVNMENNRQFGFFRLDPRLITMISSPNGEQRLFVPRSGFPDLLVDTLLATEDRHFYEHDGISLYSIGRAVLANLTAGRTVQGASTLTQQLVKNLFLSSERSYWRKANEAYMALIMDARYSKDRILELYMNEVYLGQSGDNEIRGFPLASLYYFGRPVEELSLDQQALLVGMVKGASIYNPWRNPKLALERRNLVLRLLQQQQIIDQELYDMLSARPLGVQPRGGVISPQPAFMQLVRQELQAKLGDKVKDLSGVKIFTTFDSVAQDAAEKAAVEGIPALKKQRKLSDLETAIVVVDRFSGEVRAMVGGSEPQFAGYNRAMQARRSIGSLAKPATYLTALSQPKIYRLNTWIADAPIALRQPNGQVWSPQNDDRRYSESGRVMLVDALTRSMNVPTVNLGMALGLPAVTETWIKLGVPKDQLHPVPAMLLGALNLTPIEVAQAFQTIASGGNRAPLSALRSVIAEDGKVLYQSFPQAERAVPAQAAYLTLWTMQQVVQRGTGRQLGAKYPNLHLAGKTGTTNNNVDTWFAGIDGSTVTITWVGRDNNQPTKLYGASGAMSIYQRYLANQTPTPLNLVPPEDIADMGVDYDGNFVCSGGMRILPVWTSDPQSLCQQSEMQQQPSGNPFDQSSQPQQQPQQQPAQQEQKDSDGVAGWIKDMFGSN

Structure (SMILES)	MIC [1] [µg/mL]	MIC [2] [µg/mL]	MIC [3] [µg/mL]	MIC [4] [mg/L]	EC50 [5] [µM]	EC50 [6] [µM]	MIC [7] [µg/mL]	MIC [8] [µg/mL]	MIC [9] [µg/mL]	MIC [10] [µg/mL]	MIC [11] [µg/mL]	MIC [12] [µg/mL]	MIC [13] [µg/mL]	MIC [14] [µg/mL]	EC50 [5, 15] [µM]
CCN1CCN(C(=O)NC(C(=O)N[C@H]2Cc3cccc(C(=O)O)c3OB2O)c2ccc(OC)nc2Cl)C(=O)C1=O (stereo partly drawn) [Example 65, (3R)-3-(2-(2-chloro-6-methoxypyridin-3-yl)-2-(4-ethyl-2,3-dioxopiperazine-1-carboxamido)acetamido)-2-hydroxy-3,4-dihydro-2H-benzo[e][1,2]oxaborinine-8-carboxylic acid]	32 to 64	8 to 16	> 128	128 to 256 (≈ 223 to 446 µM)											
CCN1CCN(C(=O)NC(C(=O)N[C@H]2Cc3cccc(C(=O)O)c3OB2O)c2cccnc2)C(=O)C1=O (stereo partly drawn) [Example 105, (3R)-3-(2-(4-ethyl-2,3-dioxopiperazine-1-carboxamido)-2-(pyridin-3-yl)acetamido)-2-hydroxy-3,4-dihydro-2H-benzo[e][1,2]oxaborinine-8-carboxylic acid]				32 to 64 (≈ 62.8 to 126 µM)	30 to 500	> 100	32 to 64	32 to 64	< 0.25	2 to 4	8 to 16	> 128	32 to 64	> 128	
CCN1CCN(C(=O)NC(C(=O)N[C@H]2Cc3cccc(C(=O)[O-])c3OB2O)c2ccc[n+](C)c2)C(=O)C1=O (stereo partly drawn) [Example 106, (3R)-3-(2-(4-ethyl-2,3-dioxopiperazine-1-carboxamido)-2-(1-methylpyridin-1-ium-3-yl)acetamido)-2-hydroxy-3,4-dihydro-2H-benzo[e][1,2]oxaborinine-8-carboxylate]				32 to 64 (≈ 61.1 to 122 µM)		< 10									> 500
CCN1CCN(C(=O)NC(C(=O)N[C@H]2Cc3cccc(C(=O)O)c3OB2O)c2ccc[n+](CC(=O)[O-])c2)C(=O)C1=O (stereo partly drawn) [Example 108, 2-(3-(2-(((R)-8-carboxy-2-hydroxy-3,4-dihydro-2H-benzo[e][1,2]oxaborinin-3-yl)amino)-1-(4-ethyl-2,3-dioxopiperazine-1-carboxamido)-2-oxoethyl)pyridin-1-ium-1-yl)acetate]				32 to 64 (≈ 56.4 to 113 µM)	30 to 500	10 to 100	32 to 64	> 128	8 to 16	32 to 64	8 to 16	> 128	32 to 64	> 128	
CCN1CCN(C(=O)NC(C(=O)N[C@H]2Cc3cccc(C(=O)O)c3OB2O)c2ncccn2)C(=O)C1=O (stereo partly drawn) [Example 111, (3R)-3-(2-(4-ethyl-2,3-dioxopiperazine-1-carboxamido)-2-(pyrimidin-2-yl)acetamido)-2-hydroxy-3,4-dihydro-2H-benzo[e][1,2]oxaborinine-8-carboxylic acid]				32 to 64 (≈ 62.7 to 125 µM)	30 to 500	> 100	32 to 64	32 to 64	0.5 to 1	2 to 4	8 to 16	> 128	32 to 64	> 128	
CCN1CCN(C(=O)NC(C(=O)N[C@H]2Cc3cccc(C(=O)O)c3OB2O)C2CCCC2)C(=O)C1=O (stereo partly drawn) [Example 116, (3R)-3-(2-cyclopentyl-2-(4-ethyl-2,3-dioxopiperazine-1-carboxamido)acetamido)-2-hydroxy-3,4-dihydro-2H-benzo[e][1,2]oxaborinine-8-carboxylic acid]				128 to 256 (≈ 256 to 512 µM)		10 to 100									< 30
CCN1CCN(C(=O)NC(C(=O)N[C@H]2Cc3cccc(C(=O)O)c3OB2O)c2ccc(S(C)(=O)=O)cc2)C(=O)C1=O (stereo partly drawn) [Example 118, (3R)-3-(2-(4-ethyl-2,3-dioxopiperazine-1-carboxamido)-2-(4-(methylsulfonyl)phenyl)acetamido)-2-hydroxy-3,4-dihydro-2H-benzo[e][1,2]oxaborinine-8-carboxylic acid]				128 to 256 (≈ 218 to 437 µM)		> 100									< 30
CS(=O)(=O)c1ccc(C(NC(=O)N2CCN(CCF)C(=O)C2=O)C(=O)N[C@H]2Cc3cccc(C(=O)O)c3OB2O)cc1 (stereo partly drawn) [Example 119, (3R)-3-(2-(4-(2-fluoroethyl)-2,3-dioxopiperazine-1-carboxamido)-2-(4-(methylsulfonyl)phenyl)acetamido)-2-hydroxy-3,4-dihydro-2H-benzo[e][1,2]oxaborinine-8-carboxylic acid]				32 to 64 (≈ 52.9 to 106 µM)	30 to 500	> 100									
